Reference: ChEMBL document CHEMBL1201862, “PubChem BioAssay data set” (2004)
Activity calls are given as the source filed them.

Columns and labels:
[1] = biological target: T1, Dual specificity protein phosphatase 3 (Homo sapiens, UniProt P51452); assay: SAR VHR1 Fluorescent Assay for In Vitro dose response studies Set 2. [Related pubchem assays (depositor defined):AID1654, AID1661, AID1878]; format: functional
[2] = biological target: T2, Tyrosine-protein phosphatase non-receptor type 11 (Homo sapiens, UniProt Q06124); assay: SHP2 phosphatase inhibition, dose response, selectivity assay for STEP inhibitor project, biochemical (AID 602367); format: functional; settings: read-out: IC50_Mean
T2 sequence (Q06124 whole entry): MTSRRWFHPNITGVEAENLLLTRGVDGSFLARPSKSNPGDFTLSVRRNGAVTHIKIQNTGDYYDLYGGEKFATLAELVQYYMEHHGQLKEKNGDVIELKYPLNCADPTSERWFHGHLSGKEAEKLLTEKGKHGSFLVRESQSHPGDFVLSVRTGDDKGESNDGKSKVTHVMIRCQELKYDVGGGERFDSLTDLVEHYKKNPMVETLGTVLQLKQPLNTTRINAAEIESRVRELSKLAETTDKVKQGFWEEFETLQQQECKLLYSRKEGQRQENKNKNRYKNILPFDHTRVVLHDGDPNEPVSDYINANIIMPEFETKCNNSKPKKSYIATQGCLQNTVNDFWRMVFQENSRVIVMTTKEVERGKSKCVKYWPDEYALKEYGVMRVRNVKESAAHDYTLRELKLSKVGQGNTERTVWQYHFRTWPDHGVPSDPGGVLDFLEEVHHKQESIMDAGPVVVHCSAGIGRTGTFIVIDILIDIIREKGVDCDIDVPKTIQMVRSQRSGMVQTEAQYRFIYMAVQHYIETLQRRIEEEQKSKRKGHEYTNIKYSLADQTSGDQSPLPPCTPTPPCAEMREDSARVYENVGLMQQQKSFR

[3] = biological target: T1, Dual specificity protein phosphatase 3; assay: SAR VHR1 Fluorescent Assay for In Vitro dose response studies. [Related pubchem assays (depositor defined):AID1654, AID1661, AID1878, AID1992, AID2004, AID2070, AID2085]; format: functional
[4] = biological target: DNA (cytosine-5)-methyltransferase 1 (Homo sapiens, UniProt P26358); assay: DNMT1 methyltransferase inhibitors, confirmation, biochemical, fluorescent molecular beacon (AID 602386); format: functional
[5] = biological target: 26S proteasome non-ATPase regulatory subunit 14 (Homo sapiens, UniProt O00487); assay: inhibition of proteasome subunit RPN11 – biochemical, fluorescence polarization, uHTS hits, confirmation (AID 602368); format: functional
[6] = biological target: T1, Dual specificity protein phosphatase 3; assay: VHR1 phosphatase inhibitors, biochemical (AID 1878)
[7] = biological target: T3, Tyrosine-protein phosphatase non-receptor type 7 (Homo sapiens, UniProt P35236); format: functional
T3 sequence (P35236 whole entry): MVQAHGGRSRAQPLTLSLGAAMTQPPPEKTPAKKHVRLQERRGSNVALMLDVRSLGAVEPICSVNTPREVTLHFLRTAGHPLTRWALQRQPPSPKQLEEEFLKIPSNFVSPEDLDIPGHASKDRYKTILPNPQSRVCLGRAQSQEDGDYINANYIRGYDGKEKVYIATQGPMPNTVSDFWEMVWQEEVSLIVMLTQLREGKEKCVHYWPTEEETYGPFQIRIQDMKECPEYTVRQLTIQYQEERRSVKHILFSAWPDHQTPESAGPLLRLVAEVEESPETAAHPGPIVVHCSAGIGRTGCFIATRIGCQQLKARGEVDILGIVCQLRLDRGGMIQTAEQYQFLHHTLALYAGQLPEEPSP

[8] = biological target: T4, Tyrosine-protein phosphatase non-receptor type 22 (Homo sapiens, UniProt Q9Y2R2); assay: PTPN22 phosphatase inhibition, dose response, selectivity assay for STEP inhibitor project, biochemical (AID 624241); format: functional
T4 sequence (Q9Y2R2 whole entry): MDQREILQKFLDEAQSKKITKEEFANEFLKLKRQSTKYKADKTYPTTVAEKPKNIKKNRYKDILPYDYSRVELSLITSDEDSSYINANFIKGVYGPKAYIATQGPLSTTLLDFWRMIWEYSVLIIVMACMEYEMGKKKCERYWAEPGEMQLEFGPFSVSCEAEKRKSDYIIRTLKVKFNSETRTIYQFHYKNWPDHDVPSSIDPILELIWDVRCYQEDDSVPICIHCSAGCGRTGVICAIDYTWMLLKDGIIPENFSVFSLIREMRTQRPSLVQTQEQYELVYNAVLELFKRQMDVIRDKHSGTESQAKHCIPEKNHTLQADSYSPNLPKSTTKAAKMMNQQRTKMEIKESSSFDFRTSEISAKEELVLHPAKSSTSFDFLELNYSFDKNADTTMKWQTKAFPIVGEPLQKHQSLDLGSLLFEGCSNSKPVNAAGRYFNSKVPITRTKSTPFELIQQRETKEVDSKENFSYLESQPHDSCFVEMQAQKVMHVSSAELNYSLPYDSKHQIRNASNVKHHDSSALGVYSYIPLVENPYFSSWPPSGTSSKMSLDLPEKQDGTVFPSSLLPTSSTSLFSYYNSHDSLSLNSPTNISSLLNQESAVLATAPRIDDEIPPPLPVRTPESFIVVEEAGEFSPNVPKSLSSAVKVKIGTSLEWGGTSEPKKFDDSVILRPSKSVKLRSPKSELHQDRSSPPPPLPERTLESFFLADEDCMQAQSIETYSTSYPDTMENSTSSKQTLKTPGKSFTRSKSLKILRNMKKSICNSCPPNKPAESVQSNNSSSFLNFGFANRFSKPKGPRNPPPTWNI

[9] = biological target: T4, Tyrosine-protein phosphatase non-receptor type 22; assay: inhibitors of LYP phosphatase, biochemical, fluorescence intensity, uHTS (AID 1779)
[10] = biological target: T1, Dual specificity protein phosphatase 3; assay: VHR1 phosphatase inhibitors, primary screen, biochemical, absorbance, uHTS (AID 1654)
[11] = biological target: T4, Tyrosine-protein phosphatase non-receptor type 22; format: functional
[12] = biological target: Small ubiquitin-related modifier 1 (Homo sapiens, UniProt P63165); assay: inhibitors of SUMO1 peptide binding, dose response, biochemical, fluorescence polarization, uHTS hits (AID 624382); format: functional; settings: read-out: IC50_Mean
[13] = biological target: T1, Dual specificity protein phosphatase 3; assay: SAR VHR1 absorbance Assay for In Vitro dose response studies. [Related pubchem assays (depositor defined):AID1654, AID1661, AID1878, AID1992, AID2004]
[14] = biological target: SUMO E1/E2 (Homo sapiens, UniProt P63279+Q9UBE0+Q9UBT2); assay: SAR analysis of SUMOylation using HTRF in an in-Vitro dose response assay. [Related pubchem assays (depositor defined):AID2006, AID2011, AID2018, AID2069, AID2658]; format: functional
[15] = biological target: Serine/threonine-protein phosphatase PP1-alpha catalytic subunit (Homo sapiens, UniProt P62136); assay: PP1 phosphatase inhibitors, dose response, biochemical, fluorescence (AID 2394)
[16] = biological target: SUMO-activating enzyme (Homo sapiens, UniProt Q9UBT2); assay: SUMOylation inhibitor hit validation, confirmation, SUMOylation inhibitor project, biochemical, AlphaScreen (AID 2018); format: functional
Sequence of SUMO-activating enzyme (Q9UBE0 whole entry): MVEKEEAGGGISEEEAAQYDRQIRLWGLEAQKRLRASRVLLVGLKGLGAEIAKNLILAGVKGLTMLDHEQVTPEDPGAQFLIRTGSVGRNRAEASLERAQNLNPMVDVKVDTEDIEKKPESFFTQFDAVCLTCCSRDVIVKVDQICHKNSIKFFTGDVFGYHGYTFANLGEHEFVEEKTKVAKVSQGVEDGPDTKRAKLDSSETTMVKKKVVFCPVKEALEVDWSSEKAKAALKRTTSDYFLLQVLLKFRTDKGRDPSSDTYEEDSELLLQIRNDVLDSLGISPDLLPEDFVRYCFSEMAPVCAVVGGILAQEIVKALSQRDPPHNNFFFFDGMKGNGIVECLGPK
Sequence of SUMO-activating enzyme (Q9UBT2 whole entry): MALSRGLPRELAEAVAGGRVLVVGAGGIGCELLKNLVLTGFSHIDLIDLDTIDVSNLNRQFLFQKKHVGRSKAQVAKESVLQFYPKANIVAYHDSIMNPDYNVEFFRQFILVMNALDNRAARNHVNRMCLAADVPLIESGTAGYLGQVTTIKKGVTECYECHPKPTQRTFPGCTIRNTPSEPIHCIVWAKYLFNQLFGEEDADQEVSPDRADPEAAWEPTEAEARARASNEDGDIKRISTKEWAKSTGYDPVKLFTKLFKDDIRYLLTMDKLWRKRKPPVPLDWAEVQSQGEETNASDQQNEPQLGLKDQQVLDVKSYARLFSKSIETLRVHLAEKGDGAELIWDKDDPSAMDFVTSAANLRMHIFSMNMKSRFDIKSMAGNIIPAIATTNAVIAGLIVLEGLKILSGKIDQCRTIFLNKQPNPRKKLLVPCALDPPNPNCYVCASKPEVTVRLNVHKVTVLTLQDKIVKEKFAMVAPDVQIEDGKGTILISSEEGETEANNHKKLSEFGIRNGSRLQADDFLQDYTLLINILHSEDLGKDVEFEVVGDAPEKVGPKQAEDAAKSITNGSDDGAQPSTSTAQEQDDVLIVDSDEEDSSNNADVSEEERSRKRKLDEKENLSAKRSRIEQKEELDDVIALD

T1 sequence (P51452 whole entry): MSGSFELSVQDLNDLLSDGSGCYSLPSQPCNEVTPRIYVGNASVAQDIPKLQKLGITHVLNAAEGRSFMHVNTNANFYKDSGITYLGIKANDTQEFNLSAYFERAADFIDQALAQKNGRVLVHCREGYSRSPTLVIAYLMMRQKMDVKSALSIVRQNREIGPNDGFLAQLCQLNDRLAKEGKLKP
Sequence of Serine/threonine-protein phosphatase PP1-alpha catalytic subunit (P62136 whole entry): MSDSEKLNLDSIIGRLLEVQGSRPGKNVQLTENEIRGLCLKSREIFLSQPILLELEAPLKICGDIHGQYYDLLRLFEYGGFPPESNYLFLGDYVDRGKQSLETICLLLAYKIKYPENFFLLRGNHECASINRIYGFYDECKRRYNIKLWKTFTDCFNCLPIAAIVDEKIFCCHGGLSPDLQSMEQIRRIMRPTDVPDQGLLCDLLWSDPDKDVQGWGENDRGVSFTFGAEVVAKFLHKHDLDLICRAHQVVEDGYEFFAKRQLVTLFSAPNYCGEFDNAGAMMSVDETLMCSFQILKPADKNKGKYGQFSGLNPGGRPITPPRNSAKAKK
Sequence of DNA (cytosine-5)-methyltransferase 1 (P26358 whole entry): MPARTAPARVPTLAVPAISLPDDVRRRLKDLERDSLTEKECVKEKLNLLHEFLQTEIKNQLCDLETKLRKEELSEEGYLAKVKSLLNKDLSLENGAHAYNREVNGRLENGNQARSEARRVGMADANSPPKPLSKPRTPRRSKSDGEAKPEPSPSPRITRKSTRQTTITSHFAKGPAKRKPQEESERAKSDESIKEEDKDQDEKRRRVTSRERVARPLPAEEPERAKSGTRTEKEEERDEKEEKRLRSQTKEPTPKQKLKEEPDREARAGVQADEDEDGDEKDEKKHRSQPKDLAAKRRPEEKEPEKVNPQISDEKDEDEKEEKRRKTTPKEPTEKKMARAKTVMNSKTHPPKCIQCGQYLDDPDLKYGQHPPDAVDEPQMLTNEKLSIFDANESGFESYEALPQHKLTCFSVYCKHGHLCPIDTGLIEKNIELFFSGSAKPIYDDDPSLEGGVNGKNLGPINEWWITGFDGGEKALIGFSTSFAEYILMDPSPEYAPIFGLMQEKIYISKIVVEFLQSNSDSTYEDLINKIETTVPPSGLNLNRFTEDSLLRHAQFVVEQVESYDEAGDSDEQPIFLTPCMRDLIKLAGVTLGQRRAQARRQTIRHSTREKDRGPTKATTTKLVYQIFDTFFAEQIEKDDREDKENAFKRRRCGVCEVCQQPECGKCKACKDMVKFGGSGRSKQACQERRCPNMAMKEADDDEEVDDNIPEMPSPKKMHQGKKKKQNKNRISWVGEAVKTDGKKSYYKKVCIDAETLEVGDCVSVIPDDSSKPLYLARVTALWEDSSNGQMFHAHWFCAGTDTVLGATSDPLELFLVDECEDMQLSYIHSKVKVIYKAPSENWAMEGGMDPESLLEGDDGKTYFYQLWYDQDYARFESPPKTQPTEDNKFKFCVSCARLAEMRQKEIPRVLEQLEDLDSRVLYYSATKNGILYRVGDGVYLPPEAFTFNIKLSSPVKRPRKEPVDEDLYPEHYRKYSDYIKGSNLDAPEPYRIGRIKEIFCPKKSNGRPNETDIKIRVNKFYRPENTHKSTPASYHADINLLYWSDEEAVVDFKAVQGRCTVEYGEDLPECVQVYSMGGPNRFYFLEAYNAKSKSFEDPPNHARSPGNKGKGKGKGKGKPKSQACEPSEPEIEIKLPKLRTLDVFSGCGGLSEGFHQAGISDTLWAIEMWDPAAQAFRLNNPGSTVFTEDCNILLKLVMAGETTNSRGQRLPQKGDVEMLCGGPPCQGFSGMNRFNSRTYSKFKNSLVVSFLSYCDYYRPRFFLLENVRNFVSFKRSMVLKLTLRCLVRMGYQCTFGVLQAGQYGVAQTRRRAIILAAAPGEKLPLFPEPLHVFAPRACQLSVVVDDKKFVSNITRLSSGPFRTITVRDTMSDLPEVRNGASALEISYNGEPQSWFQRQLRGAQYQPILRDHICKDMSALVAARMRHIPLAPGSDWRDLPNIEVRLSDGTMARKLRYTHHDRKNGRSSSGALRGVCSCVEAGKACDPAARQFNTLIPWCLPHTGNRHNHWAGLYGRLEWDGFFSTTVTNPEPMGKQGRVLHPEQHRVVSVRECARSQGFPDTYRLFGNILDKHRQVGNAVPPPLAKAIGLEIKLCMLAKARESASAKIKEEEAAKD
Sequence of 26S proteasome non-ATPase regulatory subunit 14 (O00487 whole entry): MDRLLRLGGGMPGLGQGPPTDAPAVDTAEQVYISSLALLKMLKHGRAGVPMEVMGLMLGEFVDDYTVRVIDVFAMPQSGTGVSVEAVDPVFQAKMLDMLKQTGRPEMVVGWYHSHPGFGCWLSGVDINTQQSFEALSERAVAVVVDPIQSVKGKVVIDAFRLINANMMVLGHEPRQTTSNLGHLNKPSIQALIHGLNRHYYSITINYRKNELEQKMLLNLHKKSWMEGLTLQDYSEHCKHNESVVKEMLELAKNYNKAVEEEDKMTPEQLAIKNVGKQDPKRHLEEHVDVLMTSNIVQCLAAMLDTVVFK
Sequence of SUMO E1/E2 (Q9UBE0 whole entry): as the sequence (Q9UBE0 whole entry) above
Sequence of SUMO E1/E2 (Q9UBT2 whole entry): as the sequence (Q9UBT2 whole entry) above
Sequence of SUMO E1/E2 (P63279 whole entry): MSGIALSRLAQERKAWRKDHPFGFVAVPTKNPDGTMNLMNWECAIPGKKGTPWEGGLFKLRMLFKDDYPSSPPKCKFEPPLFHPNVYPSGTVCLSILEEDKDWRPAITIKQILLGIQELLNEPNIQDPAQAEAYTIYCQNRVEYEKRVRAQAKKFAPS
Sequence of Small ubiquitin-related modifier 1 (P63165 whole entry): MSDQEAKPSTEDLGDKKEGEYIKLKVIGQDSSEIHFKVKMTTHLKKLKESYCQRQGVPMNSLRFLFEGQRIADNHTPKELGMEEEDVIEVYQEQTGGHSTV

Structure (SMILES)	IC50 [1]	IC50 [2]	IC50 [3]	IC50 [4]	IC50 [5]	IC50 [6]	IC50 [7]	IC50 [8]	IC50 [9]	IC50 [10]	IC50 [11]	IC50 [12]	IC50 [13]	IC50 [14]	IC50 [15]	IC50 [16]
CCOC(=O)c1sc2nc3c(SCC(=O)O)cc(C(=O)c4ccccc4O)cn3c(=O)c2c1C	218 nM (active)	1080 nM (active)	382 nM (active)	4120 nM (active)	6790 nM (active)	3690 nM (active)	< 1240 nM (active)	1160 nM (active)	> 99000 nM (inactive)	4640 nM (active)	< 1240 nM (active)	> 66600 nM (inactive)	1240 nM (active)	–	–	–
C=CCn1c(NC(=O)c2ccccc2Cl)c(C#N)c2nc3ccccc3nc21	–	–	–	–	–	–	–	–	–	–	–	–	–	15700 nM (active)	43600 nM (not active)	860 nM (active)
